In article PMC4886280 (The Journal of General Physiology, 2016):

Biological target: T1, P2X7 (Homo sapiens, UniProt Q99572)
T1 sequence (Q99572 1-595): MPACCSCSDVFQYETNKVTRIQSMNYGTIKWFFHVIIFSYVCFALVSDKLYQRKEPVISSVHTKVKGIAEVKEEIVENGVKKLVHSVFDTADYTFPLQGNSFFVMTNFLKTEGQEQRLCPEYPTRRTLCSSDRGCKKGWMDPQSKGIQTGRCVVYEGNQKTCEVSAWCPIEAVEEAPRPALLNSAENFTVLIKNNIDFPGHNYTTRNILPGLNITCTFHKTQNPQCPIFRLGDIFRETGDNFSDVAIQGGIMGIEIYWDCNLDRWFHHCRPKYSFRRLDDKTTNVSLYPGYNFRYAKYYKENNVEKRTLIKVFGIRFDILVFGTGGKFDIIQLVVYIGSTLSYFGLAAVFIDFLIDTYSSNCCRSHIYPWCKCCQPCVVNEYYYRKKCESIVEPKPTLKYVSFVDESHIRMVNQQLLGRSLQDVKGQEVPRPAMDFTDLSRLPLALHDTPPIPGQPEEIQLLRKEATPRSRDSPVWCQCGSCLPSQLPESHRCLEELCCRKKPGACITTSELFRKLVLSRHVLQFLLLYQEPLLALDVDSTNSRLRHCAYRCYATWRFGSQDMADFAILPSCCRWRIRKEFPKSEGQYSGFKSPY
Assay: whole-cell patch clamp, ATP concentration-response in low-DIC bath
Type: cell-based

- EC50: 339 ± 27 µM
Compound: Nc1ncnc2c1ncn2[C@@H]1O[C@H](COP(=O)(O)OP(=O)(O)OP(=O)(O)O)[C@@H](O)[C@H]1O [ATP]
